In patent US20190248888A1, “METHODS OF LOWERING BLOOD GLUCOSE LEVELS” (Regeneron Pharmaceuticals, Inc., priority 2016, published 2019):

What was measured:
[1] = system: αTC1-6 glucagonoma cells; test: αTC1-6 cell proliferation (CellTiter 96 Aqueous), WT and Slc38a5 KD; assay type: cell-based; conditions: 4 mM in culture medium, 5 days; for cell proliferation, Slc38a5 knock-down αTC1-6 cells: compared with wildtype cells
Description: Slc38a5 KO αTC1 clones were generated using CRISPR-Cas9 techniques. Target sequences (sgRNAs) were designed using an online sgRNA design tool from DNA2.0 (DNA2.0). The sgRNAs were cloned into the pSpCas9-2A-GFP-Puro vector using BsmBl (NEB) and αTC1 cells were transfected with Lipofectamine 2000 according to the manufacturers' instructions (Life Technologies). Clones with deletion mutations were verified by PCR amplifications, TaqMan analysis and RNA sequencing. […] Both WT and Slc38a5 KD αTC1/6 cells were prepared in an assay medium (MEM from Gibco), supplemented with 5% fetal bovine serum (FBS), 10 mM HEPES, and 100 IU/ml penicillin and 100 μg/ml streptomycin) and seeded on 96-well plates at a density of ˜15,000 cells per well in 4-6 replicates. Selected amino acids were added to the final concentration of 4 mM. Cell proliferations were measured every day using the CellTiter 96 Aqueous Cell Proliferation Assay (Promega) according to the manufacturer's instructions. Briefly, 20 μl of assay reagent was added to each well and the cell plates were incubated in a tissue culture incubator for 2.5 hours. Absorbance was measured at 490 nm on a plate reader SpectraMax Plus (Molecular Devices). Values were corrected for background absorbance using the averages of the wells containing assay medium only and plotted in Prism (GraphPad).

[2] = system: C57BL/6 mice; test: GCGR antibody with or without rapamycin in C57BL/6 mice: blood chemistry, islet cell mass; conditions: GCGR-antibody and rapamycin-treated mice
Description: C57BL/6 mice (males, 10 weeks of age, Taconic) were housed (5 mice per cage) in a controlled environment (12-h light/dark cycle, 22±1° C., 60-70% humidity) and fed ad libitum with standard chow (Purina Laboratory Rodent Diet 5001, LabDiet). Mice were assigned to study groups (n=10) based on baseline blood glucose levels. Mice were injected subcutaneously (sc) with GCGR antibody (3 mg/kg) or the control antibody (3 mg/kg) alone or in combination with rapamycin (10 mg/kg) or the vehicle. For the duration of the study, GCGR or control antibody was administered once weekly, whereas rapamycin or the vehicle was administered daily. Blood was collected from the tail for glucose measurements without fasting. Plasma samples were collected via submandibular bleeds at baseline and on day 21 after dosing for analysis of hormones and total amino acid levels. Seven days after the last antibody administration (day 21), mice were sacrificed, organs weighed and pancreata collected.
Pancreas α- and β-cell mass was measured as described elsewhere (Okamato et al., 2015, Endocrinology 156:2781-2794). α- and PP cell mass were determined using anti-somatostatin antibody (Sigma-Aldrich; #SAB4502861) and anti-pancreatic polypeptide antibody (Sigma-Aldrich; #SAB2500747). For quantifying Slc38a5 positive α-cells, pancreas sections were stained with human anti-glucagon and rabbit anti-Slc38a5 (Abcam; #ab72717) primary antibodies, and Alexa Fluor 488 labeled donkey anti-rabbit (Jackson ImmunoResearch; #711-545-152) and Alexa Fluor 594 donkey anti-human (Jackson ImmunoResearch; #709-585-149) secondary antibodies. For quantifying proliferating cells, Alexa Fluor 647 labeled anti-Ki67 (Abcam; #ab194724) was used in combination with anti-glucagon and anti-Slc38a5 antibodies. Slides were scanned using a Zeiss Axio Scan.Z1 slide scanner (Zeiss) and the images were analyzed using the Halo (Indica Labs).
Blood glucose was determined using ACCU-CHEK® Compact Plus (Roche Diagnostics). Plasma glucagon and insulin levels were determined using glucagon and mouse insulin ELISA (Mercodia). Plasma total amino acid levels were measured using L-Amino Acid Quantification Kit (Sigma-Aldrich).

| SMILES | rate of cell proliferation, wildtype αTC1-6 cells [1] | cell proliferation, Slc38a5 knock-down αTC1-6 cells [1] | muscle mass [2] |
| --- | --- | --- | --- |
| C[C@H](N)C(=O)O [alanine] | significantly increased | to a much lesser extent | – |
| NC(=O)CC[C@H](N)C(=O)O [glutamine] | significantly increased | to a much lesser extent | – |
| CO[C@H]1C[C@@H]2CC[C@@H](C)[C@@](O)(O2)C(=O)C(=O)N2CCCC[C@H]2C(=O)O[C@H]([C@H](C)C[C@@H]2CC[C@@H](O)[C@H](OC)C2)CC(=O)[C@H](C)/C=C(\C)[C@@H](O)[C@@H](OC)C(=O)[C@H](C)C[C@H](C)/C=C/C=C/C=C/1C [rapamycin, reference compound] | – | – | small reduction |
